Key:
RhoA = RhoA activation of neonatal myocytes, affinity precipitation assay; format: cell-based, rat
Description: RhoA activation was determined using an affinity precipitation assay, which binds only the active GTP-bound form of Rho. In brief, sub-confluent neonatal rat myocytes were grown to approximately 85-90% confluence, cells were exposed to KMUP-3 or KMUP-3 amine salt with 10% FBS for 90 min at 37 before addition of lysis buffer (25 mM HEPES, pH 7.5, 150 mM NaCl, 1% Igepal CA-630, 10 mM MgCl2, 1 mM EDTA and 10% glycerol, 1 Ag/ml aprotinin, 10 Ag/ml leupeptin and 1 mmol/l […]) for 15 min at 4, cell lysates were clarified by centrifugation at 13000 g at 4 for 10 min, and equal volume of lysates were incubated with agarose conjugated rhotekin-RBD for 45 min at 4, then washed three time with lysis buffer. Agarose beads were boiled in SDS-PAGE sample buffer to release active RhoA in samples were resolved on a 12% polyacrylamide gel followed by immunoblotting with anti-Rho A (clone 55).

[1] = Hemodynamic measurements in anesthetized rats (LVSP, dP/dt, MABP, HR); format: in vivo, Wistar rats
Description: Hemodynamic measurements were carried out in male Wistar rats weighting 300˜350 g, anesthetized with pentobarbital sodium (40 mg kg^−1, i.p.). In brief, polyethylene tubing (PE50) was placed in the trachea to keep the airway patent, and rats continued to breathe spontaneously. Subsequently, rats were used to record hemodynamic and cardiovascular function. Vascular catheters (PE50) were placed in the femoral arteries to measure mean arterial blood pressure (MABP) and heart rate (HR). Changes of MABP and HR caused by KMUP-3 or KMUP-3 amine salt were recorded from the femoral artery with a pressure transducer (Gould, Model P50, U.S.A.), connected with a Pressure Processor Amplifier (Gould, Model 13-4615-52, U.S.A.). A femoral vein was used for intravenous administration of KMUP-3 or KMUP-3 amine salt. A specialized transducer tip catheter was placed in the right carotid artery and advanced into the left ventricle of the heart for measurement of left ventricular pressure (LVSP) or contractility; dP/dt at 50 mm Hg, an index of cardiac contractility, was derived from the left ventricular pressure trace; post-hoc vascular resistance was calculated as mean arterial blood pressure/peripheral cardiac output (MABP/PCO). Body temperature was monitored throughout the experiment and maintained between 37 and 37.5° C. by using a heating pad.
Each dose of active drugs was administered as a 20-min infusion in a series of escalating doses dissolved in a 5% dextrose water vehicle. […] KMUP-3 HCl or KMUP-3 amine salt were infused at 0.03, 0.05, and 0.075 μg/kg/20 min for the measurement of FABP, intraperitoneally injected at 0.03, 0.05 and 0.1 mg/kg for the measurement of MABP and HR and infused by intravenous injection for 2 min at 0.5, 1.0, 3.0 mg/kg dissolved in 5% dextrose water vehicle (2 ml) for the measurement of LV systolic pressure (LVSH), ABP, dP/dt, and HR. The primary hemodynamic variables were computed using commercial software and a signal processing workstation. Animals were randomly divided into one of six treatment or vehicle groups. After the completion of the surgical protocol, animals were allowed to stabilize for 1 h, and baseline data were collected at 5-min intervals for 30 min before the treatment.

ROCKII = ROCKII expression in electrically-stimulated left atria, Western blotting; format: cell-based, guinea-pig
Description: Protein extraction and Western blotting analysis. Briefly, after incubation with test agents in an organ bath, isolated beating atrium was frozen and pulverized to a fine powder at the temperature of liquid nitrogen. Atrium powders were then homogenized in protein extraction reagent (Pierce Biotechnology, Inc., Rockford, Ill.) by sonication. The samples were sonicated 10 sec three times and centrifuged at 13,000 rpm at 4° C. for 30 min. The protein concentrations of supernatants were determined by using bovine serum albumin as the standard. The cell extracts were then boiled in a ratio of 4:1 with sample buffer (Tris 100 mM, pH 6.8; glycerol 20%, Sodium dodecyl sulfate (SDS) 4% and bromophenol blue 0.2%). Electrophoresis was performed using 10% SDS-PAGE and transferred to nitrocellulose membranes (Millipore Corp., Billerica, Mass.). The membrane was blocked with Tris-buffered saline (TBS; 20 mM Tris and 137 mM NaCl, pH 7.6) containing 0.1% Tween 20 (TTBS) and 5% nonfat milk at room temperature for 1 h, washed with TTBS, and then incubated overnight at 4° C. in the appropriate primary antibody for PKARI, RhoA, ROCKII, p-CIP-17, CPI-17 and PKG1α1β. The membranes were washed in TTBS before being incubated with horseradish peroxidase-conjugated antibody against mouse, goat, or rabbit IgG for 1 hr. Membranes were then washed in TTBS and developed with the enhanced chemiluminescence for the detection of the specific antigen. The intensity of the bands was measured by densitometry. eNOS or phosphorylated eNOS were extracted from cell culture of neonatal myocytes, PA ring and aortic ring (2-3 mm) of rats and measured by Western blotting analysis.
PK, ROCKII and CIP-17 expression and pretreatment of beating left atrium. To examine whether KMUP-3 or KMUP-3 amine salt affects the protein expression in beating atrium, PKA, ROCKII, PKG and phosphorylated CIP-17 was determined by Western blotting, respectively. […]

[2] = anesthetized rats, intravenous injection 0.5-3 mg/kg within 2 min
[3] = intra-peritoneal injection 0.03-0.1 mg/kg
[4] = intravenous perfusion 0.03-0.075 μg/kg/min×20 min

## Cn1c(=O)c2c(ncn2CCN2CCN(c3ccc([N+](=O)[O-])cc3)CC2)n(C)c1=O [KMUP-3, 7-[2-[4-(4-nitrobenzene)piperazinyl]ethyl]-1,3-dimethylxanthine]
RhoA
  Rho A activation (active GTP-bound form): increased
[1]; [2]
  LVSP (left ventricular systolic pressure): dose-dependently increased
  MABP (mean arterial blood pressure): dose-dependently increased
  dP/dt: dose-dependently increased
[1]; [3]
  HR: dose-dependently increased
  MABP: dose-dependently increased
[1]; [4]
  HR: dose-dependently increased
  MABP: dose-dependently increased
ROCKII; FIG. 13A, concentration not given
  ROCKII expression: significantly increased
ROCKII; KMUP-3 0.1-10 μM
  ROCKII expression: significantly increased

Source: patent US20120321584A1, “PROCESSES FOR PREPARING AMINE SALTS OF KMUP-3 AND USE THEREOF” (KAOHSIUNG MEDICAL UNIVERSITY, priority 2011, published 2012)
